Results from US8957064B2, “Fused pyrimidines” (Bayer Intellectual Property GmbH, priority 2009, dated 2015).

Columns and labels:
[1] = biological target: His-tagged human recombinant kinase full-length Akt2 activated by PDK1 (Homo sapiens (Human), UniProt P31751); assay: Akt2 kinase assay (Akt2 TR-FRET assay, Biological Assay 2.0); assay type: biochemical; details: 10 μM ATP, 1 μM biotinylated peptide substrate, 60 min at 22° C.
Excerpt: Biological Assay 2.0: Akt2 Kinase Assay
Akt2 inhibitory activity of compounds of the present invention was quantified employing the Akt2 TR-FRET assay as described in the following paragraphs.
(§1) His-tagged human recombinant kinase full-length Akt2 expressed in insect cells and activated by PDK1 was purchased form Invitrogen (part number PV 3975). As substrate for the kinase reaction the biotinylated peptide biotin-Ahx-KKLNRTLSFAEPG (C-terminus in amide form) was used which can be purchased e.g. from the company Biosynthan GmbH (Berlin-Buch, Germany).
(§2) For the assay 50 nl of a 100 fold concentrated solution of the test compound in DMSO was pipetted into a black low volume 384 well microtiter plate (Greiner Bio-One, Frickenhausen, Germany), 2 μl of a solution of Akt2 in assay buffer [50 mM TRIS/HCl pH 7.5, 5 mM MgCl2, 1 mM dithiothreitol, 0.02% (v/v) Triton X-100 (Sigma)] were added and the mixture was incubated for 15 min at 22° C. to allow prebinding of the test compounds to the enzyme before the start of the kinase reaction. Then the kinase reaction was started by the addition of 3 μl of a solution of adenosine-tri-phosphate (ATP, 16.7 μM=>final conc. in the 5 μl assay volume is 10 μM) and substrate (1.67 μM=>final conc. in the 5 μl assay volume is 1 μM) in assay buffer and the resulting mixture was incubated for a reaction time of 60 min at 22° C. The concentration of Akt2 in the assay was adjusted depending of the activity of the enzyme lot and was chosen appropriate to have the assay in the linear range, typical enzyme concentrations were in the range of about 0.2 ng/μl (final conc. in the 5 μl assay volume).
(§3) The reaction was stopped by the addition of 5 μl of a solution of HTRF detection reagents (200 nM streptavidine-XL665 [Cisbio] and 1.5 nM anti-phosho-Serine antibody [Millipore, cat. #35-001] and 0.75 nM LANCE Eu-W 1024 labeled anti-mouse IgG antibody [Perkin Elmer]) in an aqueous EDTA-solution (100 mM EDTA, 0.1% (w/v) bovine serum albumin in 50 mM HEPES/NaOH pH 7.5).
(§4) The resulting mixture was incubated 1 h at 22° C. to allow the binding of the biotinylated phosphorylated peptide to the streptavidine-XL665 and the antibodies. Subsequently the amount of phosphorylated substrate was evaluated by measurement of the resonance energy transfer from the anti-mouse-IgG-Eu-Chelate to the streptavidine-XL665. Therefore, the fluorescence emissions at 620 nm and 665 nm after excitation at 350 nm was measured in a TR-FRET reader, e.g. a Rubystar (BMG Labtechnologies, Offenburg, Germany) or a Viewlux (Perkin-Elmer). The ratio of the emissions at 665 nm and at […] was taken as the measure for the amount of phosphorylated substrate. The data were normalised (enzyme reaction without inhibitor=0% inhibition, all other assay components but no enzyme=100% inhibition).

[2] = biological target: His-tagged human recombinant kinase full-length Akt1 (Homo sapiens (Human), UniProt P31749); assay: Akt1 kinase assay (Akt1 TR-FRET assay, Biological Assay 1.0); assay type: biochemical; details: 10 μM ATP, 1 μM biotinylated peptide substrate, 60 min at 22° C.
Sequence of His-tagged human recombinant kinase full-length Akt1 (P31749 whole entry): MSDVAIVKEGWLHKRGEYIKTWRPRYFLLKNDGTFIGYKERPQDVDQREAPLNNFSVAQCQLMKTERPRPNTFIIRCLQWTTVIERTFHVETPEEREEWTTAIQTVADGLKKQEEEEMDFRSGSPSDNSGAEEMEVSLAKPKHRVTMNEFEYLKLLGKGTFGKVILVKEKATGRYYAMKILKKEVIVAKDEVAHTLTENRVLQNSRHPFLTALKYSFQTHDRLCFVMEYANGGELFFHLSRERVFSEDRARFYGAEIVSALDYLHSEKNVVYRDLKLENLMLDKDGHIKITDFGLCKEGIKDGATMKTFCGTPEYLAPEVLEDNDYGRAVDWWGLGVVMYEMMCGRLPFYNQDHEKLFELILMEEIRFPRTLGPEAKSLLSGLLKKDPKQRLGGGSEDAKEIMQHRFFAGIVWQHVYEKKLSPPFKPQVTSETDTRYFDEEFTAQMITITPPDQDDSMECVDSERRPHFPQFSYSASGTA
Excerpt: Biological Assay 1.0: Akt1 Kinase Assay
as §1, with “Akt1 inhibitory activity of compounds of the present invention may be quantified employing the Akt1 TR-FRET assay as described in the following paragraphs. His-tagged” for “His-tagged”, “Akt1” for “Akt2”, “cells” for “cells and activated by PDK1”, “3599).” for “3975).”
as §2, with “Akt1” for “Akt2”, “0.05” for “0.2”
as §3
as §4, with “HTRF” for “TR-FRET”

Sequence of His-tagged human recombinant kinase full-length Akt2 activated by PDK1 (P31751 whole entry): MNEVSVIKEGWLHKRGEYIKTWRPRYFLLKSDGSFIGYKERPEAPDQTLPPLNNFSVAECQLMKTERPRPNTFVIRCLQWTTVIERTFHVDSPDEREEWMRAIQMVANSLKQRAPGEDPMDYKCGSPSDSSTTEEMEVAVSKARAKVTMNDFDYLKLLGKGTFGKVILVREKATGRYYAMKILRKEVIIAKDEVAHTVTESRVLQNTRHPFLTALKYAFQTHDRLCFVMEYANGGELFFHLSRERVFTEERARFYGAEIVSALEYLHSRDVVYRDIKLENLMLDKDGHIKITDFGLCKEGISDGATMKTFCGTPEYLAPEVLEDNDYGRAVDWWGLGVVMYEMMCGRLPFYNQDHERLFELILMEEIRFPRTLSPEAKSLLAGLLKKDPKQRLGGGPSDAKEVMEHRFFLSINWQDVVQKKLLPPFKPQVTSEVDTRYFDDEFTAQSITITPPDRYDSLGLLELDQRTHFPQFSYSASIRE

| Structure (SMILES) | IC50 [1] [nM] | IC50 [2] [nM] |
| --- | --- | --- |
| Fc1ccc(-c2cn3nc(C4CC4)nc3nc2-c2ccc(CN3CCC(c4n[nH]c(-c5cc(Cl)ccn5)n4)CC3)cc2)cc1 [Example 51.2, 5-(4-{4-[5-(4-chloropyridine-2-yl)-1H-[1,2,4]triazole-3-yl]-piperidine-1-ylmethyl}-phenyl)-2-cyclopropyl-6-(4-fluorophenyl)-[1,2,4]triazolo[1,5-a]pyrimidine] | 165 | 56 |
| Cc1cccc(-c2nc(C3CN(Cc4ccc(-c5nc6nc(C)c(Br)n6cc5-c5ccccc5)cc4)C3)n[nH]2)n1 [Example 57.0, 3-bromo-2-methyl-7-{4-{3-[5-(6-methylpyridine-2-yl)-1H-[1,2,4]triazole-3-yl)-azetidine-1-ylmethyl]-phenyl}-6-phenyl-imidazo[1,2-a]pyrimidine] | 3 | 6 |
| Cc1nc2nc(-c3ccc(CN4CCC(c5cnc6ccccc6n5)CC4)cc3)c(-c3ccccc3)cn2n1 [Example 24.1, 2-{1-[4-(2-methyl-6-phenyl-[1,2,4]triazolo[1,5-a]pyrimidin-5-yl)-benzyl]-piperidin-4-yl}-quinoxaline] | 9880 | 4370 |
| Fc1ccc2nc(C3CCN(Cc4ccc(-c5nc6ccnn6cc5-c5ccccc5)cc4)CC3)[nH]c2c1 [Example 18.0, 5-{4-[4-(6-fluoro-1H-benzimidazol-2-yl)-piperidin-1-ylmethyl]-phenyl}-6-phenyl-pyrazolo[1,5-a]pyrimidine] | 1090 | 42 |
| Brc1cnc2nc(-c3ccc(CN4CC(c5n[nH]c(-c6ccccn6)n5)C4)cc3)c(-c3ccccc3)cn12 [Example 55.0, 3-bromo-6-phenyl-7-{4-{3-[5-(pyridine-2-yl)-1H-[1,2,4]triazole-3-yl)-azetidine-1-ylmethyl]-phenyl}-imidazo[1,2-a]pyrimidine] | 14 | 6 |
| Cc1cccc(-c2nc(C3CN(Cc4ccc(-c5nc6nc(C7CC7)nn6cc5-c5ccc(F)cc5)cc4)C3)n[nH]2)n1 [Example 39.0, 2-cyclopropyl-6-(4-fluorophenyl)-5-(4-{3-[5-(6-methyl-pyridine-2-yl)-1H-[1,2,4]triazole-3-yl]-azetidine-1-ylmethyl}-phenyl)-[1,2,4]triazolo[1,5-a]pyrimidine] | 27 | 29 |
| Cc1cccc(-c2nc(C3CCN(Cc4ccc(-c5nc6nc(C7CC7)nn6cc5-c5ccc(F)cc5)cc4)CC3)n[nH]2)n1 [Example 51.0, 2-cyclopropyl-6-(4-fluorophenyl)-5-(4-{4-[5-(6-methylpyridine-2-yl)-1H-[1,2,4]triazole-3-yl]-piperidine-1-ylmethyl}-phenyl)-[1,2,4]triazolo[1,5-a]pyrimidine] | 46 | 41 |
| COC(=O)c1cnn2cc(-c3c(F)cccc3F)c(-c3ccc(CN4CCC(c5n[nH]c(-c6cccc(C)n6)n5)CC4)cc3)nc12 [Example 48.0, 6-(2,6-difluorophenyl)-5-(4-{4-[5-(6-methylpyridine-2-yl)-1H-[1,2,4]triazole-3-yl]-piperidine-1-ylmethyl}-phenyl)-pyrazolo[1,5-a]pyrimidine-3-carboxylic acid methyl ester] | 82 | 7 |
| c1ccc(-c2cn3ccnc3nc2-c2ccc(CN3CCC(c4nc5cccnc5[nH]4)CC3)cc2)cc1 [Example 7.0, 2-{1-[4-(6-phenyl-imidazo[1,2-a]pyrimidin-7-yl)-benzyl]-piperidin-4-yl}-3H-imidazo[4,5-b]pyridine] | 607 | 56 |
| c1ccc(-c2cn3ccnc3nc2-c2ccc(CN3CCC(c4cnc5ccccc5n4)CC3)cc2)cc1 [Example 36.0, 2-{1-[4-(6-phenyl-imidazo[1,2-a]pyrimidin-7-yl)-benzyl]-piperidine-4-yl}-quinoxaline] | 589 | 70 |
| Cc1nc2nc(-c3ccc(CN4CCC(c5n[nH]c(-c6cnccn6)n5)CC4)cc3)c(-c3ccc(F)cc3F)cn2n1 [Example 50.2, 6-(2,4-difluorophenyl)-2-methyl-5-[4-{4-(5-pyrazine-2-yl-1H-[1,2,4]triazole-3-yl)-piperidine-1-ylmethyl]-phenyl}-[1,2,4]triazolo[1,5-a]pyrimidine] | 1100 | 355 |
| c1ccc(-c2cn3nc(C4CC4)nc3nc2-c2ccc(CN3CCC(c4cnc5ccccc5n4)CC3)cc2)cc1 [Example 40.0, 2-{1-[4-(2-cyclopropyl-6-phenyl-[1,2,4]triazolo[1,5-a]pyrimidin-5-yl)-benzyl]-piperidine-4-yl}-quinoxaline] | 273 | 247 |
| Cc1cn2cc(-c3ccccc3)c(-c3ccc(CN4CCC(c5cnc6ccccc6n5)CC4)cc3)nc2n1 [Example 37.0, 2-{1-[4-(2-methyl-6-phenyl-imidazo[1,2-a]pyrimidin-7-yl)benzyl]-piperidine-4-yl}-quinoxaline] | 256 | 77 |
| c1ccc(-c2cn3ccnc3nc2-c2ccc(CN3CCC(c4nc5ccncc5[nH]4)CC3)cc2)cc1 [Example 6.0, 2-{1-[4-(6-phenyl-imidazo[1,2-a]pyrimidin-7-yl)-benzyl]-piperidin-4-yl}-3H-imidazo[4,5-c]pyridine] | 1220 | 157 |
| Cc1nc2nc(-c3ccc(CN4CCC(c5n[nH]c(-c6ccccn6)n5)CC4)cc3)c(-c3cccc(F)c3)cn2n1 [Example 49.1, 6-(3-fluorophenyl)-2-methyl-5-{4-[4-(5-pyridine-2-yl)-1H-[1,2,4]triazole-3-yl)-piperidine-1-ylmethyl]-phenyl]-[1,2,4]triazolo[1,5-a]pyrimidine formiate] | 129 | 28 |
| Cc1cccc(-c2nc(C3CN(Cc4ccc(-c5nc6nc(C)cn6c(NC(C)C)c5-c5ccccc5)cc4)C3)n[nH]2)n1 [Example 65.0, isopropyl-(2-methyl-6-phenyl-7-{4-{3-[5-(6-methylpyridine-2-yl)-1H-[1,2,4]triazole-3-yl)-azetidine-1-ylmethyl]-phenyl}-imidazo[1,2-a]pyrimidin-5-yl)-amine] | 36 | 33 |
| CNc1nc2nc(-c3ccc(CN4CC(c5n[nH]c(-c6ccccn6)n5)C4)cc3)c(-c3ccccc3)cn2n1 [Example 43.0, methyl-(6-phenyl-5-{4-[3-(5-pyridin-2-yl-1H-[1,2,4]triazol-3-yl)azetidin-1-ylmethyl]-phenyl}-[1,2,4]triazolo[1,5-a]pyrimidin-2-yl)-amine] | – | 63 |
